Consider six compounds from ChEMBL document CHEMBL1144408, “Novel atypical antipsychotic agents: rational design, an efficient palladium-catalyzed route, and pharmacological studies” (J Med Chem, 2005).

SMILES strings stand for the structures. Where “and” joins values, the source holds several entries; their conditions need not be identical. Identical values can stand only once.

Experiment [1] has as its target D(3) dopamine receptor (Homo sapiens, UniProt P35462). Put plainly: biochemical.
Description: Inhibition of [3H]7-OH-DPAT binding to Dopamine D3 receptor expressed in Sf9 cells
Experiment [2] deals with D(1A) dopamine receptor (Rattus norvegicus, UniProt P18901).
Chain of D(1A) dopamine receptor (P18901 whole entry): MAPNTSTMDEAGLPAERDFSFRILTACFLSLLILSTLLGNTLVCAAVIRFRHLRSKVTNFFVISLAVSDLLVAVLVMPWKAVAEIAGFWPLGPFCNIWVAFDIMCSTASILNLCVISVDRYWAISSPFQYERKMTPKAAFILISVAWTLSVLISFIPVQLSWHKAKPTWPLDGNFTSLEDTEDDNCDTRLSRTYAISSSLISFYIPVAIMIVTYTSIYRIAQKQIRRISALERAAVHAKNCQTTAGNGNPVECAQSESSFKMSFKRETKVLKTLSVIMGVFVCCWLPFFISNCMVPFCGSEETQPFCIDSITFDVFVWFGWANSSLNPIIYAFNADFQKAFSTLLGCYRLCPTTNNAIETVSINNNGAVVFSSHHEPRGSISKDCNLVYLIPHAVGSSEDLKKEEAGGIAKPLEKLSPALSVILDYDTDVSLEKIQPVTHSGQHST
Description: Inhibition of [3H]-SCH- 23390 binding to rat dopamine D1 receptor
Experiment [3] deals with T1, 5-hydroxytryptamine receptor 2C (Rattus norvegicus, UniProt P08909).
T1 sequence (P08909 whole entry): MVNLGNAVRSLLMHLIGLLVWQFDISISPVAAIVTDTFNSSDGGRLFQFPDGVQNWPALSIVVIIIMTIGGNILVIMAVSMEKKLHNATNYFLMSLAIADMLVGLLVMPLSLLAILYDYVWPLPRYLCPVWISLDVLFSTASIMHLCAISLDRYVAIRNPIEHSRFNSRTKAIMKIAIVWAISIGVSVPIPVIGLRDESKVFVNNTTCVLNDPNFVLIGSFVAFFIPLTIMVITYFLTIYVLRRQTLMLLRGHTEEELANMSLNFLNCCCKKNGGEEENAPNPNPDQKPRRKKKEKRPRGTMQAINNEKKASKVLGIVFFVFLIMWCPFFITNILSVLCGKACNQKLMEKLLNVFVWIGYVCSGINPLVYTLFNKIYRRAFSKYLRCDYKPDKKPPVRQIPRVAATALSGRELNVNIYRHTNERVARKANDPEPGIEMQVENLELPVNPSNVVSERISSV
In words: Inhibition of [3H]mesulergine binding to rat 5-hydroxytryptamine 2C receptor.

Experiment [4] has as its system Rattus norvegicus. In words: In vivo effective dose against catalepsy response was determined in rats. In kind it is functional.
The species named for experiment [5] is Rattus norvegicus. In words: animal or person.
Description: In vivo effective dose against conditioned avoidance response was determined in rats
Experiment [6] relates to Rattus norvegicus. Put plainly: In vivo effective dose was determined against apomorphine climbing in rats. In kind it is functional.
Experiment [7] deals with Rattus norvegicus. Put plainly: In vivo effective dose of compound against 5-MeO-DMT induced head twitches in rats. It counts as functional.
Experiment [8] deals with Rattus norvegicus. Put plainly: In vivo effective dose against 5-MeO-DMT-induced head twitches in rats was determined. It counts as functional.
The species named for experiment [9] is Rattus norvegicus. In words: animal or person. The source holds these as a separate data set.
Description: In vivo effective dose against spontaneous locomotor activity was determined in rats

Chain of D(3) dopamine receptor (P35462 whole entry): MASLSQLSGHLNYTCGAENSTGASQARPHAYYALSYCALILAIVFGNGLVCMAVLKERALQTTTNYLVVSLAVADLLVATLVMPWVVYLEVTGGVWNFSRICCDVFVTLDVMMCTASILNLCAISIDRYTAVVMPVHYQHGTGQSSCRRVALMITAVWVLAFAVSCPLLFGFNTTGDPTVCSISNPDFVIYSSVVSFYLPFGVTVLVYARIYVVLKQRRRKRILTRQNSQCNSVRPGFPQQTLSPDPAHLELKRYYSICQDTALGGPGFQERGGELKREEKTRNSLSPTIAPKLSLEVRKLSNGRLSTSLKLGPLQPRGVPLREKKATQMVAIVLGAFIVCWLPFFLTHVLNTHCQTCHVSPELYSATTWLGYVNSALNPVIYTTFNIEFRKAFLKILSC

`Cc1ccc2n1Cc1ccccc1C=C2N1CCN(C)CC1`: the Ki (in general, the dissociation constant of the complex between target and ligand, obtained from inhibition or displacement) in experiment [1] was determined as 88.6 nM; in experiment [2], 230 nM; in experiment [3], 15 nM.

In the case of `CN1CCN(C2=Cc3cc(Cl)ccc3Cn3cccc32)CC1`, the Ki stood at 24.2 nM in [1], 47.4 nM in experiment [2] and 3.8 nM in experiment [3].

Turning to `CN1CCN(C2=Cc3ccccc3Cn3cccc32)CC1`, the ED50 (usually the midpoint of the dose-response relation) in experiment [4] was > 100 mg/kg and > 357 µmol/kg; in [5], 0.56 mg/kg and 2 µmol/kg; in experiment [6], 0.5 µmol/kg and 0.14 mg/kg; in experiment [7], 0.12 mg/kg; in experiment [8], 0.43 µmol/kg; in experiment [9], 1.6 mg/kg and 5.73 µmol/kg. In experiment [1], this compound showed an inhibition constant Ki of 224 nM.

As for `CN1CCN(C2=Cn3cccc3Sc3sccc32)CC1`, the inhibition constant Ki in experiment [1] was 25 nM; in experiment [2] it was 4.91 nM.

In the case of `CN1CCN(C2=Cn3cccc3Sc3ccccc32)CC1`, the ED50 in [4] is > 100 mg/kg and > 336 µmol/kg; in experiment [6], 1.64 mg/kg and 5.51 µmol/kg; in [7] it was 1.99 mg/kg; in experiment [8] it was 6.69 µmol/kg; in experiment [9], 0.51 mg/kg.

As for `CN1CCN(C2=Nc3cc(Cl)ccc3Nc3ccccc32)CC1` [CLOZAPINE], the ED50 is > 100 mg/kg and > 306 µmol/kg in experiment [4]; 5.72 mg/kg and 17.5 µmol/kg in [6]; 5.35 mg/kg in [7]; 16.4 µmol/kg in experiment [8].
